Source: article PMC8699473, “An Easily Expandable Multi-Drug LC-MS Assay for the Simultaneous Quantification of 57 Oral Antitumor Drugs in Human Plasma” (Cancers, 2021)
Values joined by “and” are separate entries in the source; they are usually repeats but may differ in a detail not shown here. Identical values can stand only once.

Legend:
[1] = Plasma concentrations in patients on oral antitumor therapy (LC-MS); format: in vivo, human; conditions: for Min–Max Concentration [% of r.c.] / Median Concentration of All Samples [% of r.c.]: patient plasma, all samples, r.c. = respective cmin; for Interpatient Coefficient of Variation [%]: patient plasma concentrations
Excerpt: The liquid chromatography-mass spectrometer system consisted of a Thermo Scientific Dionex UltiMate^TM 3000 with an integrated and temperature controlled autosampler (Thermo Fisher Scientific, Dreieich, Germany). An Acquity UPLC® BEH C18 column (2.1 × 100 mm, 1.7 µm; Waters, Milford, CT, USA) equipped with an Acquity UPLC® BEH C18 VanGuard^TM Pre-Column (2.1 × 5 mm, 1.7 µm; Waters, Milford, CT, USA) was used for chromatographic separation. The Q-Exactive^TM Focus mass spectrometer (MS) was hyphenated with a heated electrospray ionization (HESI) source (both from Thermo Fisher Scientific, Dreieich, Germany).
Chromatographic separation was achieved using a gradient elution with water containing 0.5% (v/v) FA (eluent A) and MeOH with 0.1% (v/v) FA (eluent B). The injection volume was 5 µL. The gradient program is shown in Supplement Table S2. The flow rate was 0.5 mL/min with a total run time of 15 min. The column heater was maintained at 50 °C and the autosampler temperature was 4 °C.
The following MS and HESI settings were maintained for all analyses: Sheath gas, auxiliary gas, and sweep gas flow rates were set to 60, 20, and 0, respectively. The spray voltage was 4000 V. Both capillary and auxiliary gas heater temperatures were set to 400 °C. High-purity nitrogen gas was used for the HESI source gases and for the bath gas of the C-trap. […] The HESI source was configured in positive mode for ionization.
The stock solutions were stored in glass vials at −80 °C. Aliquots of all stock solutions were combined in ACN (volumes of individual stock solution solvents are negligible) to obtain a standard solution of all analytes with an individual concentration of 200% of the respective trough level (cmin). Eight individual working standards were prepared by stepwise dilution of this standard solution with concentrations from 10 to 200% cmin (shown in Supplement Table S3). Furthermore, the four individual IS stock solutions were combined and diluted to 50 ng/mL with ACN. Calibration and validation standards were prepared by spiking 50 µL pooled human plasma with 10 µL of the respective working solution. Next, 250 µL IS solution (50 ng/mL in ACN) were added and vortexed vigorously. […] Then, 100 µL supernatant were transferred to 300 µL HPLC insert glass vials and diluted with 100 µL eluent (90% A/10% B). For blank samples, 50 µL pooled human plasma were combined with 10 µL ACN (instead of working solution) and prepared as described above. The calibration and validation standards were freshly prepared before every run. Patient plasma samples were prepared as calibration and validation standards (no additional processing step necessary), except for adding 10 µL ACN instead of 10 µL working standard. Before sample preparation, the frozen plasma samples were thawed in absence of light at 4 °C.
Blood samples were collected over the entire dosing interval from patients treated with an oral anticancer drug as listed in Supplement Table S4. […] A maximum of two samples at two different time points throughout the entire dosing interval were collected per patient. Treatment duration before collection was at least five half-lives (depending on the specific oral anticancer drug). The samples were collected in K3-EDTA tubes.
A total of 71 blood samples from 39 patients treated with 14 different oral anticancer drugs were collected (see Supplement Table S4 for details). All patients were recruited from independent outpatient clinics associated with the Comprehensive Cancer Center of the University Hospital Erlangen (CCC Erlangen-EMN). Of 71 blood samples, 41 were taken ±4 h of trough level (cmin).

[2] = 244 plasma samples; cited from earlier work
[3] = Reference trough level (cmin) at steady state; format: in vivo, human; conditions: minimum steady-state plasma concentration, calculated based on cmax; ref supplement [7], [2,5,24], [51]

Row | Compound | Min–Max Concentration [% of r.c.] [1] | Interpatient Coefficient of Variation [%] [1] | Median Concentration of All Samples [% of r.c.] [1] | other results
1 | CNC(=O)c1ccccc1Sc1ccc2c(/C=C/c3ccccn3)n[nH]c2c1 [Axitinib] | 6.0 % of r.c. |  |  | Measured plasma concentration ([1]; 6 mg/day, 12 h, ±4 h of trough level: no): 0.3 ng/mL
2 | Cc1ccc(NC(=O)c2ccc(CN3CCN(C)CC3)cc2)cc1Nc1nccc(-c2cccnc2)n1 [Imatinib] |  | 29.4% | 168.9 % of r.c. | Measured plasma concentration ([1]; 400 mg/day, 24 h, ±4 h of trough level: yes): 1998.2 ng/mL and 1309.6 ng/mL
3 | COc1cc2c(Nc3ccc(Br)cc3F)ncnc2cc1OCC1CCN(C)CC1 [Vandetanib] | 78.2–95.3 % of r.c. |  | 86.7 % of r.c. | Measured plasma concentration ([1]; 300 mg/day, 24 h, ±4 h of trough level: no): 757.7 ng/mL and 621.3 ng/mL
4 | CC(C)(C)c1nc(-c2cccc(NS(=O)(=O)c3c(F)cccc3F)c2F)c(-c2ccnc(N)n2)s1 [Dabrafenib] | 455.8–988.8 % of r.c. |  | 722.3 % of r.c. | 
5 | COc1cc2nccc(Oc3ccc(NC(=O)NC4CC4)c(Cl)c3)c2cc1C(N)=O [Lenvatinib] |  |  |  | Measured plasma concentration ([1]; 14 mg/day, 24 h, ±4 h of trough level: yes): 7.8 ng/mL
6 | C[C@]12CC[C@H](O)CC1=CC[C@@H]1[C@@H]2CC[C@]2(C)C(c3cccnc3)=CC[C@@H]12 [Abiraterone] | 4.3–1784.9 % of r.c. | 187.3% | 229.0 % of r.c. | CV of plasma concentration at ±4 h of trough level ([1]; 14 patient samples): 140.8%; average concentration of the plasma samples at ±4 h of trough level ([1]; 14 patient samples): 10.2 ng/mL; range of plasma concentration at ±4 h of trough level ([1]; 14 patient samples): 0.4 to 59.5 ng/mL; average plasma concentration [2]: 9.3 ng/mL; range of plasma concentration [2]: 2.0 to 49.8 ng/mL
7 | COc1cc2nccc(Oc3ccc(NC(=O)C4(C(=O)Nc5ccc(F)cc5)CC4)cc3)c2cc1OC [Cabozantinib] |  | 58.5% | 153.3 % of r.c. | Measured plasma concentration ([1]; 20 mg/day, 24 h, ±4 h of trough level: yes): 289.4 ng/mL and 291.0 ng/mL and 551.4 ng/mL; Measured plasma concentration ([1]; 40 mg/day, 24 h, ±4 h of trough level: yes): 253.5 ng/mL; Measured plasma concentration ([1]; 60 mg/day, 24 h, ±4 h of trough level: no): 1225.4 ng/mL and 700.9 ng/mL and 627.0 ng/mL; Measured plasma concentration ([1]; 40/60 mg/day, 24 h, ±4 h of trough level: yes): 445.6 ng/mL and 562.2 ng/mL
8 | O=C1CN2Cc3c(ccc(Cl)c3Cl)N=C2N1 [Anagrelide] |  |  |  | cmin [3]: 1.5 ng/mL
9 | C=CC(=O)Nc1cc(Nc2nccc(-c3cn(C)c4ccccc34)n2)c(OC)cc1N(C)CCN(C)C [Osimertinib] | 101.1 % of r.c. |  |  | Measured plasma concentration ([1]; 80 mg/day, 24 h, ±4 h of trough level: no): 167.8 ng/mL
10 | O=c1[nH]c(=O)n([C@H]2C[C@H](O)[C@@H](CO)O2)cc1C(F)(F)F [Trifluridine] |  |  |  | cmin [3]: 1135 ng/mL
11 | Cc1ccc(Nc2nccc(N(C)c3ccc4c(C)n(C)nc4c3)n2)cc1S(N)(=O)=O [Pazopanib] | 76.6–86.5 % of r.c. |  | 81.5 % of r.c. | Measured plasma concentration ([1]; 200 mg/day, 24 h, ±4 h of trough level: yes): 24300.0 ng/mL and 21520.0 ng/mL
12 | COc1cc2nccc(Oc3ccc(NC(=O)Nc4cc(C)on4)c(Cl)c3)c2cc1OC [Tivozanib] | 16.4–68.3 % of r.c. | 53.8% | 41.4 % of r.c. | 
13 | O=C(c1cc(Cc2n[nH]c(=O)c3ccccc23)ccc1F)N1CCN(C(=O)C2CC2)CC1 [Olaparib] |  | 51.6% | 287.6 % of r.c. | Measured plasma concentration ([1]; 600 mg/day, 12 h, ±4 h of trough level: no): 4442.9 ng/mL and 5552.4 ng/mL and 6053.6 ng/mL
